From patent US6441177B1 (Hoffmann-La Roche Inc., priority 1995, dated 2002) come the findings set out here.

In brackets after ≈: the same amount, converted by molar mass. Where two headings read alike, the source gives them in different places.

The target of assay [1] is T1, human liver microsomal 2,3-oxidosqualene-lanosterol cyclase (OSC) (Homo sapiens, UniProt P48449).
T1 construct: Liver microsomes from a healthy volunteer were prepared in sodium phosphate buffer (pH 7.4); from tissue; host or cells: human liver microsomes from a healthy volunteer
T1 sequence (P48449 1-732): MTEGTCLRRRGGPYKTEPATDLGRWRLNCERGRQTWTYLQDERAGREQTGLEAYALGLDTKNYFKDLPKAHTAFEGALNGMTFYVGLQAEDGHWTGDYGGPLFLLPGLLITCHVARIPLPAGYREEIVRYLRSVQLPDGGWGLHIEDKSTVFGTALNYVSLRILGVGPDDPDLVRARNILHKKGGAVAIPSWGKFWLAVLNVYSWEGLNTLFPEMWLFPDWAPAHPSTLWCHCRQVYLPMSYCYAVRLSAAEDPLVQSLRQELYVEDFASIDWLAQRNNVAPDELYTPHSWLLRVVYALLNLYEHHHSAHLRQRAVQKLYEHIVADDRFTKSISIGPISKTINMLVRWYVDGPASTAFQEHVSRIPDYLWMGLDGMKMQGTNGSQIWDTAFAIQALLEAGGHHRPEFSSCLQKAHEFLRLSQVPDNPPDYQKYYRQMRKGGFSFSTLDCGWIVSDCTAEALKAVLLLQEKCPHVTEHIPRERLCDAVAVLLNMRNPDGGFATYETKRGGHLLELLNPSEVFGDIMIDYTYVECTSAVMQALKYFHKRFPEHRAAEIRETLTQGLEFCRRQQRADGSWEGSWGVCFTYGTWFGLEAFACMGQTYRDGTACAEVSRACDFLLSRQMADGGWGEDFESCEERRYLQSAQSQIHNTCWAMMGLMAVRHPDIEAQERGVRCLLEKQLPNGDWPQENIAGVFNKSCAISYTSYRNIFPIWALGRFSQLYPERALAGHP
The experiment in a line: Inhibition of human liver microsomal 2,3-oxidosqualene-lanosterol cyclase (OSC). The conditions noted are these: human liver microsomes; for IC50: concentration reducing conversion of MOS into lanosterol to 50% of control; for inhibition at 0.1 µM: constant test substance concentration of 100 nM, 1 hour at 37° C., against controls. The class given is biochemical. How it is done: Inhibition of Human Liver Microsomal 2,3-Oxidosqualene-lanosterol Cyclase (OSC)
Liver microsomes from a healthy volunteer were prepared in sodium phosphate buffer (pH 7.4). The OSC activity was measured in the same buffer which also contained 1 mM EDTA and 1 mM dithiothreitol. The microsomes were diluted to 0.8 mg/ml protein in cold phosphate buffer. Dry [^14C]R,S-monooxidosqualene (MOS; 12.8 mCi/mmol) was diluted to 20 nCi/μl with ethanol and mixed with phosphate buffer-1% BSA (Bovine Serum Albumin). A stock solution of 1 mM test substance in DMSO was diluted to the desired concentration with phosphate buffer-1% BSA. 40 μl of microsomes were mixed with 20 μl of the solution of the test substance and the reaction was subsequently started with 20 μl of the [^14C]R,S-MOS solution. The final conditions were: 0.4 mg/ml of microsomal proteins and […] of [^14C]R,S-MOS in phosphate buffer, pH 7.4, containing 0.5% albumin, DMSO <0.1% and ethanol <2%, in a total volume of 80 μl.
After 1 hour at 37° C. the reaction was stopped by the addition of 0.6 ml of 10% KOH-methanol, 0.7 ml of water and 0.1 ml of hexane:ether (1:1, v/v) which contained 25 μg of non-radioactive MOS and 25 μg of lanosterol as the carrier. After shaking 1 ml of hexane:ether (1:1, v/v) was added to each test tube, these were again shaken and then centrifuged. The upper phase was transferred into a glass test tube, the lower phase was again extracted with hexane:ether and combined with the first extract. The entire extract was evaporated to dryness with nitrogen and the residue was suspended in 50 μl of hexane:ether and applied to a silica gel plate. Chromatographic separation was effected in hexane:ether (1:1, v/v) as the eluent. […] After drying radioactive MOS and lanosterol were observed on the silica gel plate. The ratio of MOS to lanosterol was determined from the radioactive bands in order to determine the OSC inhibition.
The test was carried out on the one hand with a constant test substance concentration of 100 nM and the percentage OSC inhibition against controls was calculated. In addition, the test was carried out with different test substance concentrations and subsequently the IC50 value was calculated, i.e. the concentration required to reduce the conversion of MOS into lanosterol to 50% of the control value.
On the technique in general: Liver microsomes are a subcellular fraction often used to study metabolism.

The subject of assay [2] is Candida albicans. The experiment in a line: Antifungal activity in vitro, microdilution method. Type of assay: cell-based. The conditions noted are these: growth inhibition. How it is done: (§1) Antifungal Activity In Vitro The compounds were tested for antifungal activity against Candida albicans, Cryptococcus neoformans and Aspergillus fumigatus using a microdilution method on microtitre plates (96 wells per plate). Yeast supplemented with 1% glucose and 0.25% di-potassium phosphate was used for the three fungal strains. The fungal cells were inoculated at 3×10^4 CFU (Colony Forming Unit) in […] of medium per well. The medium contained increasing concentrations of test substance. After incubation at 27° C. for 24 or 48 hours the turbidity in each well was measured by a microtitre plate reader. The growth inhibition was calculated in comparison to a control (without test substance). The IC50 value given in the following Table is the concentration of test substance at which the growth is inhibited by 50%.
In general terms: Dilution methods test growth across graded concentrations, often in twofold steps.

Assay [3] has as its system Cryptococcus neoformans. The assay can be described thus: Antifungal activity in vitro, microdilution method. The class given is cell-based. The following applies: growth inhibition, incubation at 27° C. for 48 hours, read-out: IC50 (mg/ml) for: C. neoformans after: 48 hours. How it is done: as §1
Assay [4] concerns Aspergillus fumigatus. The assay can be described thus: Antifungal activity in vitro, microdilution method. The class given is cell-based. The conditions noted are these: growth inhibition, incubation at 27° C. for 48 hours, read-out: IC50 (mg/ml) for: A. fumigatus after: 48 hours. How it is done: as §1

Broadly, the inhibition is the change of the read-out against control, counted positive when it falls. Lower therefore signals little suppression. On to `C=CCN(C)C/C=C/COc1ccc(C(O)(C=C)c2ccc(Br)cc2)cc1` (racemic) [Example 8b, (E)-(RS)-1-[4-[4-(allyl-methyl-amino)-but-2-enyloxy]-phenyl]-1-(4-bromo-phenyl)-prop-2-en-1-ol], for which, in assay [1], the IC50 was found to be 23.7 nM and the inhibition at 0.1 µM turned out to be 78%.
For `CN(C[C@@H]1C[C@H]1COc1ccc(C(=O)c2ccc(Br)cc2)cc1)C1CC1` (racemic) [Example 31, (1RS,2RS)-(4-bromo-phenyl)-[4-[2-[(cyclopropyl-methyl-amino)-methyl]-cyclopropylmethoxy]-phenyl]-methanone], in assay [1], the IC50 amounted to 22 nM and the inhibition at 0.1 µM turned out to be 85%.
As to `CN(C[C@@H]1C[C@H]1COc1ccc(C(=O)c2ccc(Br)cc2)cc1F)C1CC1` (racemic) [Example 32a, (1RS,2RS)-(4-bromo-phenyl)-[4-[2-[(cyclopropyl-methyl-amino)-methyl]-cyclopropylmethoxy]-3-fluoro-phenyl]-methanone], in assay [1], the IC50 stood at 3.6 nM and the inhibition at 0.1 µM was determined as 85%.
Consider `C=CCN(C)CCCCCCOc1ccc(C(C)(O)c2ccc(Br)cc2)c(F)c1` (racemic) [Example 38, (RS)-1-[4-[6-(allyl-methyl-amino)-hexyloxy]-2-fluoro-phenyl]-1-(4-bromo-phenyl)-ethanol], for which, in assay [1], the IC50 turned out to be 21 nM and at 0.1 µM the inhibition was 82%.
In assay [1], `C=CCN(C)C/C=C/COc1ccc(C(C)(O)CCC=C(C)C)cc1` (racemic) [Example 39a, (E)-(RS)-2-[4-[4-(allyl-methyl-amino)-but-2-enyloxy]-phenyl]-6-methyl-hept-5-en-2-ol] displayed an IC50 of 12.3 nM and an inhibition at 0.1 µM of 87%.
For the compound `C=CCN(C)Cc1ccc(-c2ccc(C(F)c3ccc(Br)cc3)cc2)cc1` (racemic) [Example 48, (RS)-allyl-[4′-[(4-bromo-phenyl)-fluoro-methyl]-biphenyl-4-ylmethyl]-methyl-amine], the IC50 in assay [2] (incubation at 27° C. for 24 hrs., read-out: IC50 (mg/ml) for: C. albicans after: 24 hrs.) was less than 0.00032 mg/mL; in assay [2] (incubation at 27° C. for 48 hrs., read-out: IC50 (mg/ml) for: C. albicans after: 48 hrs.) it was less than 0.00032 mg/mL; in assay [3] it was 0.00047 mg/mL (≈ 1.11 µM); in assay [4], 0.018 mg/mL (≈ 42.4 µM).
`C=CCN(C)C/C=C/COc1cc(F)c(C(=O)c2ccc(Br)cc2)cc1F` [Example 1, (E)-[4-[4-(allyl-methyl-amino)-but-2-enyloxy]-2,5-difluoro-phenyl]-(4-bromo-phenyl)-methanone]: in assay [1], the IC50 was determined as 2.4 nM and testing at 0.1 µM gave an inhibition of 90%.
`O=C(c1ccc(Br)cc1)c1ccc(OC/C=C/CN2CCC(O)CC2)cc1` [Example 2l, (E)-(4-bromo-phenyl)-[4-[4-(4-hydroxy-piperidin-1-yl)-but-2-enyloxy]-phenyl]-methanone] showed an inhibition at 0.1 µM in assay [1] of 81%.
In the case of `CN(CCCCCCOc1ccc(C(=O)c2ccc(Br)cc2)c(F)c1)C1CC1` [Example 2p, (4-bromo-phenyl)-[4-[6-(cyclopropyl-methyl-amino)-hexyloxy]-2-fluoro-phenyl]-methanone], testing at 0.1 µM in assay [1] gave an inhibition of 66%.
With `C=CCN(C)CCCCCCOc1ccc(C(=O)c2ccc(Br)cc2)c(SC)c1` [Example 3, [4-[6-(allyl-methyl-amino)-hexyloxy]-2-methylsulphanyl-phenyl]-(4-bromo-phenyl)-methanone], in assay [1], the IC50 was 4.9 nM and testing at 0.1 µM gave an inhibition of 92%.
For `C=CCN(C)C/C=C/COc1ccc(C(=C)c2ccc(Br)cc2)cc1` [Example 8f, (E)-allyl-[4-[4-[1-(4-bromo-phenyl)-vinyl]-phenoxy]-but-2-enyl]-methyl-amine], in that order: 13.5 nM and 90%.
`CN(CCCCCCOc1ccccc1C(=O)c1ccc(Br)cc1)C1CC1` [Example 13a, [6-[6-(cyclopropyl-methyl-amino)-hexyloxy]-phenyl]-(4-bromo-phenyl)-methanone] displayed an inhibition at 0.1 µM in assay [1] of 82%.
In assay [1], `CN(C/C=C/COc1ccc(C(=O)c2ccc(C#N)cc2)cc1F)C1CC1` [Example 13b, (E)-4-[4-[4-(cyclopropyl-methyl-amino)-but-2-enyloxy]-3-fluoro-benzoyl]-benzonitrile] came in with an IC50 of 7.9 nM and an inhibition at 0.1 µM of 93.5%.
In assay [1], `CN(CCCCCCOc1ccc(C(=O)c2ccc(Br)cc2)cc1)CC1CC1` [Example 15, (4-bromo-phenyl)-[4-[6-(cyclopropylmethyl-methyl-amino)-hexyloxy]-phenyl]-methanone] had an IC50 of 32 nM and an inhibition at 0.1 µM of 83%.
In assay [1], `C=CCN(C)CCCCCCNc1ccc(C(=O)c2ccc(Br)cc2)cc1F` [Example 30, [4-[6-(allyl-methyl-amino)-hexylamino]-3-fluoro-phenyl]-(4-bromo-phenyl)-methanone] had an IC50 of 3.2 nM and an inhibition at 0.1 µM of 93%.
On to `C=CCN(C)CCCCCCOc1ccc(C(=O)c2ccc(Br)cc2)c(NC)c1` [Example 33, [4-[6-(allyl-methyl-amino)-hexyloxy]-2-methylamino-phenyl]-(4-bromo-phenyl)-methanone], for which, in assay [1], the IC50 turned out to be 2.3 nM and the inhibition at 0.1 µM stood at 98%.
With `C=CCN(C)CCCCCCOc1ccc(C(=O)c2ccc(Br)cc2)c(N(C)C)c1` [Example 34a, [4-[6-(allyl-methyl-amino)-hexyloxy]-2-dimethylamino-phenyl]-(4-bromo-phenyl)-methanone], in assay [1], the IC50 was 7.1 nM and the inhibition at 0.1 µM worked out at 98%.
In assay [1], `C=CCN(C)CCCCCCOc1ccc(C(=O)c2ccc(Br)cc2)c(O)c1` [Example 35, [4-[6-(allyl-methyl-amino)-hexyloxy]-2-hydroxy-phenyl]-(4-bromo-phenyl)-methanone] showed an inhibition at 0.1 µM of 97%.
As for `C=CCN(C)CCCCCCOC1CCN(S(=O)(=O)c2ccc(Br)cc2)CC1` [Example 49, allyl-[6-[1-(4-bromo-phenylsulphonyl)-piperidin-4-yloxy]-hexyl]-methyl-amine], in assay [1], the IC50 turned out to be 5.5 nM and the inhibition at 0.1 µM came to 94%.
In assay [1], `C=CCN(C)C/C=C/COc1ccc(C(=NOC)c2ccc(Br)cc2)cc1` [Example 51, (E)-and/or (Z)-[4-[(E)-4-(ally-methyl-amino)-but-2-enyloxy]-phenyl]-(4-bromo-phenyl)-methanone-0-methyl-oxime] showed an IC50 of 12.8 nM and an inhibition at 0.1 µM of 87.5%.
